In patent US7465719B2, “Carbamic acid compounds comprising an ester or ketone linkage as HDAC inhibitors” (Topotarget UK Limited, priority 2003, dated 2008):
Read-outs that look alike come from different tables or passages of the source. Blank lines part the entries; values can stand above or below the molecule they belong to.

Experiments:
[1] = tested on: K11 (HPV E7 transformed human keratinocyte line); assay: Secondary assay: cell proliferation WST-1, K11; assay type: cell-based; conditions: read-out: Cell Proliferation Inhibition WST-1 (IC50 unless otherwise specified) K11
Method: (§1) Compounds with HDAC inhibition activity, as determined using the primary assay, were subsequently evaluated using secondary cell-based assays. […] Assay Method
(§2) Cells were plated in 96-well plates at 3-10×10^3 cells/well in 100 μL of culture medium. The following day, different concentrations of candidate compounds were added and the cells incubated at 37° C. for 48 hours. Subsequently, 10 μL/well of WST-1 reagent was added and the cells reincubated for 1 hour. After the incubation time, absorbance was measured.
(§3) WST-1 is a tetrazolium salt which is cleaved to formazan dye by cellular enzymes. An expansion in the number of viable cells results in an increase in the overall activity of mitochondrial dehydrogenases in the sample. This augmentation in the enzyme activity leads to an increase in the amount of formazan dye formed, which directly correlates to the number of metabolically active cells in the culture. The formazan dye produced is quantified by a scanning multiwell spectrophotometer by measuring the absorbance of the dye solution at 450 nm wavelength (reference wavelength 690 nm).
(§4) IC50 values were calculated using the software package Prism 3.0 (GraphPad Software Inc., San Diego, Calif.), setting top value at 100 and bottom value at 0.

[2] = tested on: NHEK-Ad (primary human adult keratinocyte line); assay: Secondary assay: cell proliferation WST-1, NHEK-Ad; assay type: cell-based; conditions: read-out: Cell Proliferation Inhibition WST-1 (IC50 unless otherwise specified) NHEK-AD
Method: as §1, §2, §3, §4

[3] = tested on: JURKAT (human T-cell line); assay: Secondary assay: cell proliferation WST-1, Jurkat; assay type: cell-based; conditions: Jurkat cells, 48 hours, read-out: Cell Proliferation Inhibition WST-1 (IC50 unless otherwise specified) Jurkat
Method: as §1, §2, §3
Percent activity (% activity) in reducing the number of viable cells was calculated for each test compound as: % activity={(S^C−B)/(S^o−B)}×100 wherein S^C denotes signal measured in the presence of the compound being tested, S^o denotes signal measured in the absence of the compound being tested, and B denotes the background signal measured in blank wells containing medium only. […] IC50 values were calculated using the software package Prism 3.0 (GraphPad Software Inc., San Diego, Calif.), setting top value at 100 and bottom value at 0.

HDAC (HeLa cell extract) = assay: Primary assay: deacetylase activity, HeLa cell extract as source of HDAC; assay type: biochemical, human; conditions: read-out: HDAC Inhibition (IC50 unless otherwise specified) HeLa
Method: Decreased activity indicates increased inhibition by the test compound.
Alternatively, the activity of the compounds as HDAC inhibitors was determined using a commercially available fluorescent assay kit: (Fluor de Lys™, BioMol Research Labs, Inc., Plymouth Meeting, USA).
Extensive comparative studies have shown that Primary Assay (1) and Primary Assay (2), discussed above, yield equivalent results. Primary Assay results reported herein are (a) exclusively from (1); (b) exclusively from (2); or (c) from both (1) and (2).
The HeLa cell extract was made from HeLa cells (ATCC Ref. No. CCL-2) by freeze-thawing three times in 60 mM Tris Cl pH 8.0, 450 mM NaCl, 30% glycerol. Two cell volumes of extraction buffer were used, and particulate material was centrifuged out (20800 g, 4° C., 10 minutes). The supernatant extract having deacetylase activity was aliquotted and frozen for storage.

HeLa cells = assay: Secondary assay: cell proliferation WST-1, HeLa; assay type: cell-based; conditions: Homo sapiens, read-out: Cell Proliferation Inhibition WST-1 (IC50 unless otherwise specified) HeLa
From the text: Compounds with HDAC inhibition activity, as determined using the primary assay, were subsequently evaluated using secondary cell-based assays. The following cell lines were used: • HeLa—Human cervical adenocarcinoma cell line (ATCC ref. No. CCL-2). • K11—HPV E7 transformed human keratinocyte line provided by Pidder Jansen-Duerr, Institut für Biomedizinische Alternsforschung, Innsbruck, Austria. • NHEK-Ad—Primary human adult keratinocyte line (Cambrex Corp., East Rutherford, N.J., USA). • JURKAT—Human T-cell line (ATCC no. TIB-152). Assay Method
Cells were cultured, exposed to candidate compounds, and incubated for a time, and the number of viable cells was then assessed using the Cell Proliferation Reagent WST-1 from Boehringer Mannheim (Cat. No. […]), described below.
as §2, §3, §4

[4] = Homo sapiens, Keratinocyte, K11 cells, 48 hours
[5] = Homo sapiens, Keratinocyte, 48 h

Molecule: Nc1ccccc1NC(=O)c1ccc(CNC(=O)OCc2cccnc2)cc1 [MS-275, reference compound]
IC50 ([1]; K11 cells, 48 hours): 9160 nM
IC50 ([2]; NHEK-AD cells, 48 hours): 3100 nM
IC50 [3]: 365 nM

Molecule: COc1ccc(C2(C(=O)Oc3ccc(C(=O)NO)cc3)CCCCC2)cc1 [PX118478, 4-[(Hydroxyamino)carbonyl]phenyl 1-(4-methoxyphenyl)-cyclohexanecarboxylate]
IC50 (HDAC (HeLa cell extract)): 23 nM
IC50 (HeLa cells; HeLa cells, 48 hours): 4600 nM
IC50 [1, 4]: 13600 nM
IC50 ([3]; Homo sapiens): 500 nM
melting point: 127 to 129 °C

Molecule: O=C(NO)c1ccc(OC(=O)C2(c3ccccc3)CCCCC2)cc1 [PX118479, 4-[(Hydroxyamino)carbonyl]phenyl 1-phenylcyclohexanecarboxylate]
IC50 (HDAC (HeLa cell extract)): 52 nM
IC50 (HeLa cells; HeLa cells, 48 hours): 13700 nM
IC50 [1, 4]: 21300 nM
IC50 ([3]; Homo sapiens): 1250 nM
melting point: 142 to 144 °C

Molecule: COC(=O)c1ccc(C2(C(=O)Oc3ccc(C(=O)NO)cc3)CCCCC2)cc1 [PX118480, Methyl 4-[1-({4-[(hydroxyamino)carbonyl]phenoxy}carbonyl) -cyclohexyl]benzoate]
IC50 (HDAC (HeLa cell extract)): 25 nM
IC50 (HeLa cells; HeLa cells, 48 hours): 7900 nM
IC50 [1, 4]: 1650 nM
IC50 ([3]; Homo sapiens): 780 nM
melting point: 129 to 131 °C

melting point: 140 to 143 °C
Molecule: CCOc1ccc(C2(C(=O)Oc3ccc(C(=O)NO)cc3)CCCCC2)cc1 [PX118925, 4-[(Hydroxyamino)carbonyl]phenyl 1-(4-ethoxyphenyl) -cyclohexanecarboxylate]

melting point: 143 to 147 °C (dec.)
Molecule: CC(C)(C)OC(=O)c1ccc(C2(C(=O)Oc3ccc(C(=O)NO)cc3)CCCCC2)cc1 [PX118926, tert-Butyl 4-[1-({4-[(hydroxyamino)carbonyl]phenoxy}-carbonyl)cyclohexyl]benzoate]

melting point: 69 °C
Molecule: CC(=O)Oc1ccc(C2(C(=O)Oc3ccc(C(=O)NO)cc3)CCCCC2)cc1 [PX118959, 4-[(Hydroxyamino)carbonyl]phenyl 1-[4-(acetyloxy)phenyl]-cyclohexanecarboxylate]

melting point: 59 to 60 °C
Molecule: Cc1ccc(C2(C(=O)Oc3ccc(C(=O)NO)cc3)CCCCC2)cc1 [PX118966, 4-[(Hydroxyamino)carbonyl]phenyl 1-(4-methylphenyl) -cyclohexanecarboxylate]

melting point: 145 to 146 °C
Molecule: O=C(NO)c1ccc(OC(=O)C2(c3ccc(Cl)cc3)CCCCC2)cc1 [PX119059, 4-[(Hydroxyamino)carbonyl]phenyl 1-(4-chlorophenyl) -cyclohexanecarboxylate]

melting point: 150 to 151 °C
Molecule: O=C(NO)c1ccc(OC(=O)C2(c3cccc(F)c3)CCCCC2)cc1 [PX119061, 4-[(Hydroxyamino)carbonyl]phenyl 1-(3-fluorophenyl) -cyclohexanecarboxylate]

melting point: 125 to 126 °C
Molecule: O=C(NO)c1ccc(OC(=O)C2(c3ccccc3F)CCCCC2)cc1 [PX119062, 4-[(Hydroxyamino)carbonyl]phenyl 1-(2-fluorophenyl) -cyclohexanecarboxylate]

IC50 (HDAC (HeLa cell extract)): 85 nM
IC50 (HeLa cells; HeLa cells, 48 hours): 4900 nM
melting point: 143 to 144 °C
Molecule: COc1ccc(C2(C(=O)Oc3ccc(C(=O)NO)cc3)CCCC2)cc1 [PX119063, 4-[(Hydroxyamino)carbonyl]phenyl 1-(4-methoxyphenyl) -cyclopentanecarboxylate]

melting point: 164 to 165 °C
Molecule: O=C(NO)c1ccc(OC(=O)C2(c3ccc(F)cc3Cl)CCCCC2)cc1 [PX119064, 4-[(Hydroxyamino)carbonyl]phenyl 1-(2-chloro-4-fluorophenyl) -cyclohexanecarboxylate]

melting point: 150 to 151 °C
Molecule: O=C(NO)c1ccc(OC(=O)C2(c3ccc(F)cc3)CCCCC2)cc1 [PX119065, 4-[(Hydroxyamino)carbonyl]phenyl 1-(4-fluorophenyl) -cyclohexanecarboxylate]

melting point: 114 to 115 °C
Molecule: O=C(NO)c1ccc(OC(=O)C2(c3ccc(OC(=O)c4ccccc4)cc3)CCCCC2)cc1 [PX119085, 4-[1-({4-[(Hydroxyamino)carbonyl]phenoxy}carbonyl)cyclohexyl]-phenyl benzoate]

melting point: 124 to 125 °C
Molecule: CC(C)(C)C(=O)Oc1ccc(C2(C(=O)Oc3ccc(C(=O)NO)cc3)CCCCC2)cc1 [PX119086, 4-[(Hydroxyamino)carbonyl]phenyl 1-{4-[(2,2-dimethylpropanoyl)oxy]-phenyl}-cyclohexane-carboxylate]

melting point: 101 to 102 °C
Molecule: O=C(NO)c1ccc(OC(=O)C2(c3c(F)cccc3Cl)CCCCC2)cc1 [PX119101, 4-[(Hydroxyamino)carbonyl]phenyl 1-(2-chloro-6-fluorophenyl) -cyclohexanecarboxylate]

melting point: 169 to 170 °C
Molecule: O=C(O)c1ccc(C2(C(=O)Oc3ccc(C(=O)NO)cc3)CCCCC2)cc1 [PX119102, 4-[1-({4-[(Hydroxyamino)carbonyl]phenoxy}carbonyl)cyclohexyl]-benzoic acid]

melting point: 93 to 94 °C
Molecule: O=C(NO)c1ccc(OC(=O)C2(c3ccc(O)cc3)CCCCC2)cc1 [PX119103, 4-[(Hydroxyamino)carbonyl]phenyl 1-(4-hydroxyphenyl) -cyclohexanecarboxylate]

IC50 (HeLa cells; HeLa, 48 h): 350 nM
IC50 ([3]; Homo sapiens): 42 nM
Molecule: CC(/C=C/C(=O)NO)=C\[C@@H](C)C(=O)c1ccc(N(C)C)cc1 [TSA, Trichostatin A, reference compound]
IC50 [1, 5]: 380 nM
IC50 [2, 5]: 200 nM

Molecule: oxamflatin [reference compound]
IC50 [3]: 170 nM
